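Growth conditions: 96-well plates. Treatment: test compound, 48 hours, 5 concentrations. Analysis: linear interpolation between bracketing concentrations; unreached endpoints set to highest concentration. GI50: concentration for 50% inhibition of growth.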 Calls of active or inactive are those of the source. No stated cut-off is given here; in the data, active = GI50 up to about 1.1 µM and inactive = higher.
What was measured:
Experiment in all cases: growth of human tumour cells (NCI), 48 h
BT-549 = system: BT-549
MDA-MB-435 = system: MDA-MB-435
DLD-1 = system: DLD-1
DMS-114 = system: DMS-114
HOP-18 = system: HOP-18
LXFL 529 = system: LXFL 529
M19-MEL = system: M19-MEL
XF498 = system: XF498
RXF 631 = system: RXF 631

SMILES	GI50 (BT-549)	GI50 (MDA-MB-435)	GI50 (DLD-1)	GI50 (DMS-114)	GI50 (HOP-18)	GI50 (LXFL 529)	GI50 (M19-MEL)	GI50 (XF498)	GI50 (RXF 631)
C=CS(=O)(=O)CCN1CC1	> 10 µM (inactive)	> 10 µM (inactive)							
C=C1c2nc3ccccc3n2C=C(c2ccccc2)N1c1ccc([N+](=O)[O-])cc1	9.16 µM (inactive)	5.61 µM (inactive)							
Cc1ccc(S(=O)(=O)N2CCCSCC2)cc1		95.7 µM (inactive)							
C/C(=N/NS(=O)(=O)c1ccc([N+](=O)[O-])cc1)c1cccc[n+]1[O-]			> 100 µM (inactive)	> 100 µM (inactive)	> 100 µM (inactive)	> 100 µM (inactive)	> 100 µM (inactive)	> 100 µM (inactive)	
CCOC(=O)/C(=C/c1cn(C(C)=O)c2ccccc12)P(=O)(OC)OC		36.4 µM (inactive)							
CCN1C(=O)c2cc(OC)c(OC)cc2C(=O)C12OC(=O)c1cc3c(cc12)OCO3 (stereo unspecified)	> 100 µM (inactive)	> 100 µM (inactive)							
C=C1C(=O)O[C@@H]2[C@H]3O[C@]3(C)CCC=C(C)CC[C@@H]12			12.5 µM (inactive)	45.9 µM (inactive)	14.9 µM (inactive)		14.3 µM (inactive)	16.9 µM (inactive)	
Nc1ncc2c(n1)-c1ccccc1OC2N1CCCC1 (stereo unspecified)		> 100 µM (inactive)							
COc1cccc(/C=C/C(=O)N2CC(CCl)c3c2cc(N)c2ccccc32)c1 (stereo unspecified)	0.0122 µM (active)	0.00319 µM (active)							
CCCn1cc2c3c(cccc31)C1C=C(C)CN(C)C1C2 (stereo unspecified)			20.7 µM (inactive)	15.1 µM (inactive)	13.7 µM (inactive)				
COc1cccc(C2C(C(=O)O)=C(CO)Oc3cc4c(cc32)OCO4)c1 (stereo unspecified)			> 100 µM (inactive)	> 100 µM (inactive)	> 100 µM (inactive)	> 100 µM (inactive)	> 100 µM (inactive)	36.5 µM (inactive)	
CCOC(=O)C(=O)Nc1cccc(C)c1C			> 100 µM (inactive)	> 100 µM (inactive)	> 100 µM (inactive)	> 100 µM (inactive)	> 100 µM (inactive)	> 100 µM (inactive)	
C=COCCCOc1ccccc1			> 100 µM (inactive)	> 100 µM (inactive)	1.53 µM (inactive)	> 100 µM (inactive)	> 100 µM (inactive)	> 100 µM (inactive)	
CN(NC(=O)c1cccs1)C1=NCCCN1	> 100 µM (inactive)	> 100 µM (inactive)							
N=C(NNS(=O)(=O)c1ccccc1)Oc1ccc(Cl)cc1			90.2 µM (inactive)	69.5 µM (inactive)	> 100 µM (inactive)	51.9 µM (inactive)	> 100 µM (inactive)	> 100 µM (inactive)	
Cc1nc2[nH]ncn2c(=O)c1CCO		> 10 µM (inactive)							

SMILES	GI50 (BT-549)	GI50 (MDA-MB-435)	GI50 (DLD-1)	GI50 (DMS-114)	GI50 (HOP-18)	GI50 (LXFL 529)	GI50 (M19-MEL)	GI50 (XF498)	GI50 (RXF 631)
Cc1c(N(Cc2ccccc2)Cc2ccccc2)nc(S(C)(=O)=O)nc1S(C)(=O)=O			1.87 µM (inactive)	1.82 µM (inactive)	4.99 µM (inactive)	1.91 µM (inactive)	1.54 µM (inactive)	1.73 µM (inactive)	
CC(C)c1cccc(C(C)C)c1OS(=O)(=O)NC(=O)OC(C(F)(F)F)C(F)(F)F	67.8 µM (inactive)	57.1 µM (inactive)							
O=C(Nc1cccc(C(=O)NCCCO)c1)/C(=C/c1ccccc1)NC(=O)c1ccccc1	> 100 µM (inactive)	> 100 µM (inactive)							
CCCCNC1=C2C(=O)NN=C2CO1			> 100 µM (inactive)	> 100 µM (inactive)		39.8 µM (inactive)	> 100 µM (inactive)	> 100 µM (inactive)	> 100 µM (inactive)
Cc1cc2oc3c(ccc(=O)n3C)c(=O)c2c(C)c1Cl		28.1 µM (inactive)							
CCP(=O)(CC)C(Cl)(Cl)C(O)C(C)(C)C (stereo unspecified)		> 100 µM (inactive)							
CN(C)/N=N/c1ccc([N+](=O)[O-])cc1C(N)=O			> 100 µM (inactive)	> 100 µM (inactive)	> 100 µM (inactive)		> 100 µM (inactive)	> 100 µM (inactive)	
CC(C)(C)C(=O)OCC1OC(N=[N+]=[N-])C(OC(=O)C(C)(C)C)C(OC(=O)C(C)(C)C)C1OC(=O)C(C)(C)C (stereo unspecified)			> 100 µM (inactive)	> 100 µM (inactive)		> 100 µM (inactive)		> 100 µM (inactive)	
CC(C)(Br)C1(O)CCCN1C(=O)c1ccccc1 (stereo unspecified)			> 100 µM (inactive)		> 100 µM (inactive)	> 100 µM (inactive)	> 100 µM (inactive)		> 100 µM (inactive)
Brc1cccc(Nc2ncnc3sc4c(c23)CCC(Nc2cccc(Br)c2)C4)c1 (stereo unspecified)	> 100 µM (inactive)	> 100 µM (inactive)							
Nc1nnc(CCC(=O)Nc2cc(Cl)ccc2Cl)n1N			> 100 µM (inactive)	> 100 µM (inactive)	> 100 µM (inactive)	> 100 µM (inactive)	> 100 µM (inactive)	> 100 µM (inactive)	> 100 µM (inactive)
CCCCCCCCCCCC1=NCCN1		> 100 µM (inactive)							
CCOc1c(/N=N/c2ccccc2Cl)c(-c2ccccc2)nn1C(=S)S	35.9 µM (inactive)	29 µM (inactive)							
CC(=O)/N=C1/N(/C=C2\C(=O)Oc3ccccc3C2=O)C(=O)/C(=C/c2ccc(NC(C)=O)cc2)N1C		> 100 µM (inactive)							
O=C(O)/C(=C\c1ccncc1)c1cccc2ccccc12	> 100 µM (inactive)	> 100 µM (inactive)							
CN(C)c1ccc(/C=C/C(=O)N[C@@H]2C(=O)N3[C@@H]2SC(C)(C)[C@@H]3C(=O)O)cc1	> 100 µM (inactive)	> 100 µM (inactive)							
